Results published in US4900719A, “Nitrosothiols as hypotensive agents” (The Ohio State University, priority 1988, dated 1990).

Legend:
anesthetized dogs [1] = test: arterial blood pressure after intravenous injection in anesthetized dogs (Examples 2 and 3); format: in vivo; conditions: intravenous injection in dextrose
Protocol: A GSNO solution was diluted as 50 ug/ml in 5% dextrose in water. […] The animals were given a pre-anesthetic (monkeys--Ketamine HCl, 10 mg/kg I.M.; dogs--0.2 mg/kg fentanyl and 1 mg/kg droperidol, Innovar Vet I.V.) and anesthetized with a mixture of α-chloralose (50 mg/kg) and urethane (500 mg/kg) given as an intravenous injection. The left femoral artery and vein were cannulated with heparinized saline-filled catheters. Arterial pressure was obtained from the arterial catheter using an electromedics MS-20 solid state pressure transducer and recorded on a Gould 2400 chart recorder. […] The infusion was maintained until a new steady state value for mean arterial pressure had been obtained for each infusion rate.
By following in general the procedure described for GSNO in Example 1, animal experiments are performed on a plurality of anesthetized dogs with each intravenous injection of S-Nitrosocaptopril in dextrose as well as the arterial blood pressure of the dogs being recorded.
The specific injections as well as the arterial blood pressure of the dogs are recorded.

[2] = stability of other nitrosothiols (qualitative statement); format: physicochemical
anesthetized dogs [3] = test: mean arterial pressure during venous infusion in anesthetized dogs; format: in vivo, mongrel dogs
Protocol: (§1) Fifty milligrams of SNP (Nipride, Roche Laboratories) was reconstituted in 250 ml of 5% dextrose in water. A GSNO solution was diluted as 50 ug/ml in 5% dextrose in water. Seven mongrel dogs (18.1-31.8 kg) and seven cynomologus monkeys (Macaca fascicularis; 4.4-9.0 kg) were used in the study. The animals were given a pre-anesthetic (monkeys--Ketamine HCl, 10 mg/kg I.M.; dogs--0.2 mg/kg fentanyl and 1 mg/kg droperidol, Innovar Vet I.V.) and anesthetized with a mixture of α-chloralose (50 mg/kg) and urethane (500 mg/kg) given as an intravenous injection. The left femoral artery and vein were cannulated with heparinized saline-filled catheters. Arterial pressure was obtained from the arterial catheter using an electromedics MS-20 solid state pressure transducer and recorded on a Gould 2400 chart recorder. Randomized venous infusions of GSNO (n=7) and SNP (n=5) were made using Harvard apparatus compact infusion pump model 976. The infusion was maintained until a new steady state value for mean arterial pressure had been obtained for each infusion rate. The infusion rate was varied over the following ranges: GSNO 1.5-38.9 μg/kg/min (8 levels) and SNP 1.7-43.8 μg/kg/min (6 levels).
(§2) Intravenous administrations of GSNO or SNP in a wide range of doses decreased systematic arterial pressure in a dose related fashion. […]

anesthetized monkeys = test: mean arterial pressure during venous infusion in anesthetized monkeys; format: in vivo, cynomologus monkeys (Macaca fascicularis)
Protocol: as §1, §2

[4] = system: anesthetized dogs and monkeys; test: venous infusion in anesthetized dogs and monkeys, collected animal data (response time, onset/dissipation, effective dosage); format: in vivo
Protocol: as §1
Intravenous administrations of GSNO or SNP in a wide range of doses decreased systematic arterial pressure in a dose related fashion. FIGS. 1 and 2 show the dose-response curves for the dogs and monkeys, respectively, that occurred by SNP or GSNO administrations. In each figure (.) presents the data for SNP and (o) presents the data for GSNO. The blood pressure lowering effect of SNP and GSNO is greater in monkeys than in dogs. When 20 μg/kg/min of SNP or GSNO was administered, mean arterial pressure decreased 35-40 torr for dogs and 45 torr for monkeys. The noted response time for SNP was about 28.6±2.5 sec. and for GSNO about 33.4±6.0 sec.
From the collected animal data, it can be noted that in general the decrease in blood pressure is dosage dependent.

[5] = storage stability of solid GSNO (absorbance at 544 nm); format: physicochemical
Protocol: In air at 4° no change in the characteristic original absorbance at 544 nm was observed after 32 days. At room temperature, 75% of that absorption remained after the same period.

| SMILES | lowering of arterial blood pressure (in words) (anesthetized dogs [1]) | stability (in words) [2] | blood pressure lowering (in words) (anesthetized dogs [3]; anesthetized dogs, venous infusion, to about the same extent as SNP) | decrease in mean arterial pressure (anesthetized dogs [3]; dogs, 20 μg/kg/min venous infusion) | blood pressure lowering (in words) (anesthetized monkeys; anesthetized monkeys, venous infusion, to about the same extent as SNP) | decrease in mean arterial pressure (anesthetized monkeys; monkeys, 20 μg/kg/min venous infusion) [torr] | onset and dissipation of effect ([4]; anesthetized dogs and monkeys, compared with SNP) | effective dosage to significantly lower arterial pressure ([4]; infusion administration, from the collected animal data) | response time ([4]; venous infusion, species not stated) | change in characteristic original absorbance at 544 nm ([5]; in air at 4°, after 32 days) | absorption at 544 nm remaining ([5]; room temperature, after 32 days) [%] | effect of exclusion of light and air on stability ([5]; storage for more than 30 days) |
| --- | --- | --- | --- | --- | --- | --- | --- | --- | --- | --- | --- | --- |
| C[C@H](CSN=O)C(=O)N1CCC[C@H]1C(=O)O [S-Nitrosocaptopril, D-(S-nitroso) 3-mercaptomethylpropionyl-L-proline] | Significant lowering of arterial blood pressure | quite stable |  |  |  |  |  |  |  |  |  |  |
| N[C@@H](CCC(=O)N[C@@H](CSN=O)C(=O)NCC(=O)O)C(=O)O [GSNO, S-nitrosoglutathione] |  |  | significantly lowered blood pressure | 35-40 torr | significantly lowered blood pressure | 45 | essentially the same as obtained with SNP | at least 7 μg/1 kg animal weight/minute | about 33.4±6.0 sec. | no change | 75 | virtually no noticeable effect |
